Laboratory results as given in the CheMixHub viscosity set.

Assay: xn = mol fraction of the nth substance listed

C1CCOC1 + O
Settings | viscosity [mPa·s]
298 K, 101 kPa, x2 = 0.217 | 0.5842
298 K, 101 kPa, x2 = 0.284 | 0.6433
298 K, 101 kPa, x2 = 0.331 | 0.6715
298 K, 101 kPa, x2 = 0.3845 | 0.7352
298 K, 101 kPa, x2 = 0.4994 | 0.9349
298 K, 101 kPa, x2 = 0.6293 | 1.22
298 K, 101 kPa, x2 = 0.8001 | 1.681
298 K, 101 kPa, x2 = 0.8523 | 1.745
298 K, 101 kPa, x2 = 0.9073 | 1.658
298.15 K, 101 kPa, x1 = 0.02 | 1.157
298.15 K, 101 kPa, x1 = 0.05 | 1.464
298.15 K, 101 kPa, x1 = 0.07 | 1.62
298.15 K, 101 kPa, x1 = 0.1001 | 1.749
298.15 K, 101 kPa, x1 = 0.1199 | 1.79
298.15 K, 101 kPa, x1 = 0.1499 | 1.796
298.15 K, 101 kPa, x1 = 0.1699 | 1.783
298.15 K, 101 kPa, x1 = 0.2 | 1.723
298.15 K, 101 kPa, x1 = 0.2199 | 1.671
298.15 K, 101 kPa, x1 = 0.25 | 1.586
298.15 K, 101 kPa, x1 = 0.2701 | 1.538
298.15 K, 101 kPa, x1 = 0.3002 | 1.445
298.15 K, 101 kPa, x1 = 0.3499 | 1.313
298.15 K, 101 kPa, x1 = 0.3999 | 1.172
298.15 K, 101 kPa, x1 = 0.4499 | 1.039
298.15 K, 101 kPa, x1 = 0.5001 | 0.9437
298.15 K, 101 kPa, x1 = 0.5998 | 0.7744
298.15 K, 101 kPa, x1 = 0.7001 | 0.65
298.15 K, 101 kPa, x1 = 0.8001 | 0.5622
298.15 K, 101 kPa, x1 = 0.9 | 0.4979
298.15 K, 101 kPa, x2 = 0.31 | 0.6564
298.15 K, 101 kPa, x2 = 0.5 | 0.9237
298.15 K, 101 kPa, x2 = 0.63 | 1.224
298.15 K, 101 kPa, x2 = 0.68 | 1.399
298.15 K, 101 kPa, x2 = 0.73 | 1.49
298.15 K, 101 kPa, x2 = 0.77 | 1.582
298.15 K, 101 kPa, x2 = 0.8 | 1.678
298.15 K, 101 kPa, x2 = 0.83 | 1.701
298.15 K, 101 kPa, x2 = 0.86 | 1.732
298.15 K, 101 kPa, x2 = 0.9 | 1.68
298.15 K, 101 kPa, x2 = 0.94 | 1.49
298.15 K, 101 kPa, x2 = 0.97 | 1.202
298.15 K, 101.32 kPa, x1 = 0.0423 | 1.362
298.15 K, 101.32 kPa, x1 = 0.0812 | 1.647
298.15 K, 101.32 kPa, x1 = 0.1809 | 1.741
298.15 K, 101.32 kPa, x1 = 0.3559 | 1.285
298.15 K, 101.32 kPa, x1 = 0.5248 | 0.892
298.15 K, 101.32 kPa, x1 = 0.7342 | 0.638
298.15 K, 101.32 kPa, x1 = 0.8468 | 0.554
298.15 K, 101.32 kPa, x2 = 0.0008 | 0.47
298.15 K, 101.33 kPa, x2 = 0.111 | 0.515
298.15 K, 101.33 kPa, x2 = 0.197 | 0.565
298.15 K, 101.33 kPa, x2 = 0.3027 | 0.65
298.15 K, 101.33 kPa, x2 = 0.4036 | 0.763
298.15 K, 101.33 kPa, x2 = 0.5028 | 0.916
298.15 K, 101.33 kPa, x2 = 0.6047 | 1.129
298.15 K, 101.33 kPa, x2 = 0.7032 | 1.394
298.15 K, 101.33 kPa, x2 = 0.8017 | 1.651
298.15 K, 101.33 kPa, x2 = 0.9013 | 1.665
303.15 K, 101 kPa, x1 = 0.02 | 1.025
303.15 K, 101 kPa, x1 = 0.05 | 1.276
303.15 K, 101 kPa, x1 = 0.07 | 1.398
303.15 K, 101 kPa, x1 = 0.1001 | 1.514
303.15 K, 101 kPa, x1 = 0.1199 | 1.549
303.15 K, 101 kPa, x1 = 0.1499 | 1.558
303.15 K, 101 kPa, x1 = 0.1699 | 1.55
303.15 K, 101 kPa, x1 = 0.2 | 1.504
303.15 K, 101 kPa, x1 = 0.2199 | 1.466
303.15 K, 101 kPa, x1 = 0.25 | 1.395
303.15 K, 101 kPa, x1 = 0.2701 | 1.358
303.15 K, 101 kPa, x1 = 0.3002 | 1.281
303.15 K, 101 kPa, x1 = 0.3499 | 1.174
303.15 K, 101 kPa, x1 = 0.3999 | 1.056
303.15 K, 101 kPa, x1 = 0.4499 | 0.9408
303.15 K, 101 kPa, x1 = 0.5001 | 0.8597
303.15 K, 101 kPa, x1 = 0.5998 | 0.7127
303.15 K, 101 kPa, x1 = 0.7001 | 0.6034
303.15 K, 101 kPa, x1 = 0.8001 | 0.5252
303.15 K, 101 kPa, x1 = 0.9 | 0.4699
303.15 K, 101.33 kPa, x1 = 0.0971 | 1.444
303.15 K, 101.33 kPa, x1 = 0.1497 | 1.523
303.15 K, 101.33 kPa, x1 = 0.2011 | 1.477
303.15 K, 101.33 kPa, x1 = 0.3057 | 1.257
303.15 K, 101.33 kPa, x1 = 0.3979 | 1.04
303.15 K, 101.33 kPa, x1 = 0.4978 | 0.8602
303.15 K, 101.33 kPa, x1 = 0.6026 | 0.7189
303.15 K, 101.33 kPa, x1 = 0.7025 | 0.6137
303.15 K, 101.33 kPa, x1 = 0.8003 | 0.5413
303.15 K, 101.33 kPa, x1 = 0.8978 | 0.4813
308.15 K, 101 kPa, x1 = 0.02 | 0.9079
308.15 K, 101 kPa, x1 = 0.05 | 1.124
308.15 K, 101 kPa, x1 = 0.07 | 1.227
308.15 K, 101.33 kPa, x1 = 0.0971 | 1.256
308.15 K, 101.33 kPa, x1 = 0.1497 | 1.329
308.15 K, 101.33 kPa, x1 = 0.2011 | 1.301
308.15 K, 101.33 kPa, x1 = 0.3057 | 1.12
308.15 K, 101.33 kPa, x1 = 0.3979 | 0.9414
308.15 K, 101.33 kPa, x1 = 0.4978 | 0.7881
308.15 K, 101.33 kPa, x1 = 0.6026 | 0.6666
308.15 K, 101.33 kPa, x1 = 0.7025 | 0.5723
308.15 K, 101.33 kPa, x1 = 0.8003 | 0.5085
308.15 K, 101.33 kPa, x1 = 0.8978 | 0.4554
313.15 K, 101.33 kPa, x1 = 0.1497 | 1.171
313.15 K, 101.33 kPa, x1 = 0.2011 | 1.154
313.15 K, 101.33 kPa, x1 = 0.3057 | 1.01
313.15 K, 101.33 kPa, x1 = 0.3979 | 0.8555
313.15 K, 101.33 kPa, x1 = 0.4978 | 0.724
313.15 K, 101.33 kPa, x1 = 0.6026 | 0.6175
313.15 K, 101.33 kPa, x1 = 0.7025 | 0.5361
313.15 K, 101.33 kPa, x1 = 0.8003 | 0.4788
313.15 K, 101.33 kPa, x1 = 0.8978 | 0.4306
318.15 K, 101.33 kPa, x1 = 0.0971 | 0.9839
318.15 K, 101.33 kPa, x1 = 0.1497 | 1.041
318.15 K, 101.33 kPa, x1 = 0.2011 | 1.037
318.15 K, 101.33 kPa, x1 = 0.3057 | 0.9172
318.15 K, 101.33 kPa, x1 = 0.3979 | 0.7829
318.15 K, 101.33 kPa, x1 = 0.4978 | 0.6687
318.15 K, 101.33 kPa, x1 = 0.6026 | 0.576
318.15 K, 101.33 kPa, x1 = 0.7025 | 0.5036
318.15 K, 101.33 kPa, x1 = 0.8003 | 0.452
318.15 K, 101.33 kPa, x1 = 0.8978 | 0.4089
323.15 K, 101.33 kPa, x1 = 0.0971 | 0.8801
323.15 K, 101.33 kPa, x1 = 0.1497 | 0.9355
323.15 K, 101.33 kPa, x1 = 0.2011 | 0.9367
323.15 K, 101.33 kPa, x1 = 0.3057 | 0.8382
323.15 K, 101.33 kPa, x1 = 0.3979 | 0.7216
323.15 K, 101.33 kPa, x1 = 0.4978 | 0.621
323.15 K, 101.33 kPa, x1 = 0.6026 | 0.5365
323.15 K, 101.33 kPa, x1 = 0.7025 | 0.4716
323.15 K, 101.33 kPa, x1 = 0.8003 | 0.4277
323.15 K, 101.33 kPa, x1 = 0.8978 | 0.3879
